In brackets after ≈: the same amount, converted by molar mass. Several values for one entry are separate records, joined by “and”; a condition that tells them apart may be missing. Identical values can stand only once.
How the values were obtained:
P. aeruginosa [1] = test: Checkerboard FIC assay, BisEDT with CF agents (Example 10); type: cell-based, Pseudomonas aeruginosa; details: for Drug B MIC: Colistin alone (checkerboard with BisEDT)
[2] = test system: Burkholderia cepacia complex; test: as above; type: cell-based, Burkholderia spp.; details: for MIC: agent alone, as observed during FIC testing
[3] = test system: Pseudomonas aeruginosa strain PA01; test: Bacterial killing curves with and without 10% CF patient sputum
[4] = Aerosol particle size distribution of nebulized suspensions (cascade impactor / APS); details: exposure aerosols of the rat efficacy study, In-Tox Mercer Impactor
S. aureus ATCC 29213 = details: control strain ATCC 29213 S. aureus; per CLSI M100-S24 or provided by Microbion; cited from earlier work
P. aeruginosa [5] = test: Broth microdilution MIC (Example 10)
[6] = test system: Burkholderia cepacia complex; test: Broth microdilution MIC (Example 10); details: initial MIC testing

NC[C@H]1O[C@H](O[C@H]2[C@H](O)[C@@H](O[C@H]3O[C@H](CO)[C@@H](O)[C@H](N)[C@H]3O)[C@H](N)C[C@@H]2N)[C@H](N)C[C@@H]1O [Tobramycin, reference compound]
FICB (P. aeruginosa [1]; P. aeruginosa 6322, FIC of Tobramycin in combination with BisEDT, panel rows C-G): 1 | MICB (P. aeruginosa [1]; P. aeruginosa 6322, MIC of Tobramycin in combination with BisEDT, panel rows C-G): 128 µg/mL | FICB (P. aeruginosa [1]; P. aeruginosa 6977, Tobramycin FIC in combination with BisEDT, per checkerboard row): 2 | MICB (P. aeruginosa [1]; P. aeruginosa 6977, Tobramycin MIC in combination with BisEDT, per checkerboard row): 256 µg/mL | FICB (P. aeruginosa [1]; P. aeruginosa 7745, Tobramycin FIC in combination with BisEDT, per checkerboard row): 1 | MICB (P. aeruginosa [1]; P. aeruginosa 7745, Tobramycin MIC in combination with BisEDT, per checkerboard row): 0.5 µg/mL | FICB (P. aeruginosa [1]; P. aeruginosa 9108, Tobramycin FIC in combination with BisEDT, per checkerboard row): 1 | MICB (P. aeruginosa [1]; P. aeruginosa 9108, Tobramycin MIC in combination with BisEDT, per checkerboard row): 0.5 µg/mL | FICB ([2]; B. cenocepacia 548, FIC of Tobramycin in combination with BisEDT): 0.25 | FICB ([2]; B. cenocepacia 813, FIC of Tobramycin in combination with BisEDT): 1 | FICB ([2]; B. cepacia 546, Tobramycin FIC in combination with BisEDT, per checkerboard row): 0.5 | MICB ([2]; B. cepacia 546, Tobramycin MIC in combination with BisEDT, per checkerboard row): 16 µg/mL | FICB ([2]; B. cepacia 1793, Tobramycin FIC in combination with BisEDT, per checkerboard row): 0.5 and 1 | MICB ([2]; B. cepacia 1793, Tobramycin MIC in combination with BisEDT, per checkerboard row): 8 µg/mL and 16 µg/mL | FICB ([2]; B. multivorans 1795, FIC of Tobramycin in combination with BisEDT): 1 | MICB ([2]; B. multivorans 1795, MIC of Tobramycin in combination with BisEDT): >256 µg/mL | CFU higher in cultures with sputum than without ([3]; PA01, 1 μg/mL, 10% CF sputum, most time points): 0.5-1 log CFU/mL | effect of CF patient sputum on bactericidal activity ([3]; PA01, 10% CF patient sputum): partially inhibits | MMAD [4]: 2.81 μm

CC[C@H]1OC(=O)[C@H](C)[C@@H](O[C@H]2C[C@@](C)(OC)[C@@H](O)[C@H](C)O2)[C@H](C)[C@@H](O[C@@H]2O[C@H](C)C[C@H](N(C)C)[C@H]2O)[C@](C)(OC)C[C@@H](C)C(=O)[C@H](C)[C@@H](O)[C@]1(C)O [Clarithromycin]
Expected MIC: acceptable range (S. aureus ATCC 29213): 0.12 to 0.5 µg/mL | Expected MIC: goal (S. aureus ATCC 29213): 0.25 µg/mL

C[C@H]1[C@H](NC(=O)/C(=N\OC(C)(C)C(=O)O)c2csc(N)n2)C(=O)N1S(=O)(=O)O [AZT]
MIC ([2]; B. cenocepacia isolate 0548): 64 µg/mL | MIC ([2]; B. cenocepacia isolate 0813): 32 µg/mL | MIC ([2]; B. multivorans isolate 1795): 16 µg/mL | MIC (P. aeruginosa [5]; P. aeruginosa isolate 103 (ATCC 25922), QC strain, initial MIC testing): 8 µg/mL (≈ 18.4 µM) | MIC (P. aeruginosa [5]; P. aeruginosa isolate 103 (ATCC 25922), during FIC testing, each agent tested alone for QC, one replicate): 8 µg/mL | MIC (P. aeruginosa [5]; P. aeruginosa isolate 1497 (TOB-R, AMK-R, CIP-I, AZT-R, COL-R), initial MIC testing): 32 µg/mL (≈ 73.5 µM) | MIC (P. aeruginosa [5]; P. aeruginosa isolate 1530 (TOB-R, AMK-R, CIP-R), initial MIC testing): 4 µg/mL (≈ 9.19 µM) | MIC (P. aeruginosa [5]; P. aeruginosa isolate 1553 (TOB-R, AMK-R, CIP-R), initial MIC testing): 8 µg/mL (≈ 18.4 µM) | MIC (P. aeruginosa [5]; P. aeruginosa isolate 6322 (MEM-R, TOB-R, AMK-R, CIP-R, AZT-R), initial MIC testing): 64 µg/mL (≈ 147 µM) | MIC (P. aeruginosa [5]; P. aeruginosa isolate 6977 (MEM-I, TOB-R, CIP-R, AZT-I), initial MIC testing): 16 µg/mL (≈ 36.7 µM) | MIC (P. aeruginosa [5]; P. aeruginosa isolate 7745 (MEM-R, CIP-R, AZT-R), initial MIC testing): 32 µg/mL (≈ 73.5 µM) | MIC (P. aeruginosa [5]; P. aeruginosa isolate 7754 (MEM-R, TOB-R, CIP-R, AZT-I), initial MIC testing): 16 µg/mL (≈ 36.7 µM) | MIC (P. aeruginosa [5]; P. aeruginosa isolate 7762 (MEM-I, CIP-I), initial MIC testing): 8 µg/mL (≈ 18.4 µM) | MIC (P. aeruginosa [5]; P. aeruginosa isolate 7871 (MEM-R, AZT-I), initial MIC testing): 16 µg/mL (≈ 36.7 µM) | MIC (P. aeruginosa [5]; P. aeruginosa isolate 7874, initial MIC testing): 4 µg/mL (≈ 9.19 µM) | MIC (P. aeruginosa [5]; P. aeruginosa isolate 7886 (MEM-R, CIP-R, AZT-R), initial MIC testing): 64 µg/mL (≈ 147 µM) | MIC (P. aeruginosa [5]; P. aeruginosa isolate 8797 (MEM-R, TOB-R, AMK-R, CIP-R, AZT-R, COL-R), initial MIC testing): >256 µg/mL | MIC (P. aeruginosa [5]; P. aeruginosa isolate 8798 (MEM-R, TOB-R, AMK-R, CIP-R, AZT-R, COL-R), initial MIC testing): 256 µg/mL (≈ 588 µM) | MIC (P. aeruginosa [5]; P. aeruginosa isolate 9108 (CIP-R, AZT-I), initial MIC testing): 16 µg/mL (≈ 36.7 µM) | MIC ([6]; B. cenocepacia isolate 0813 (CPI-I)): 8 µg/mL (≈ 18.4 µM) | MIC ([6]; B. cenocepacia isolate 1631): 32 µg/mL (≈ 73.5 µM) | MIC ([6]; B. cenocepacia isolate 1783): 32 µg/mL (≈ 73.5 µM) | MIC ([6]; B. cenocepacia isolate 8555): 256 µg/mL (≈ 588 µM) | MIC ([6]; B. cepacia isolate 0546): 16 µg/mL (≈ 36.7 µM) | MIC ([6]; B. cepacia isolate 0547): 16 µg/mL (≈ 36.7 µM) | MIC ([6]; B. cepacia isolate 1793): 128 µg/mL (≈ 294 µM) | MIC ([6]; B. cepacia isolate 1794): 32 µg/mL (≈ 73.5 µM) | MIC ([6]; B. cepacia isolate 9040): 32 µg/mL (≈ 73.5 µM) | MIC ([6]; B. multivorans isolate 1580 (CIP-R)): 64 µg/mL (≈ 147 µM) | MIC ([6]; B. multivorans isolate 1791): 4 µg/mL (≈ 9.19 µM) | MIC ([6]; B. multivorans isolate 1795 (MEM-I, CIP-R)): 4 µg/mL (≈ 9.19 µM) | MIC ([6]; B. multivorans isolate 5665 (CIP-I)): 4 µg/mL (≈ 9.19 µM) | MIC ([6]; B. multivorans isolate 8952 (CIP-I)): 8 µg/mL (≈ 18.4 µM)

Colistin
FICB (P. aeruginosa [1]; P. aeruginosa 6322, Colistin FIC in combination with BisEDT, per checkerboard row): 1 | MICB (P. aeruginosa [1]; P. aeruginosa 6322, Colistin MIC in combination with BisEDT, per checkerboard row): 0.5 µg/mL | Drug B MIC (P. aeruginosa [1]; P. aeruginosa 6322): 0.5 µg/mL | FICB (P. aeruginosa [1]; P. aeruginosa 6977, Colistin FIC in combination with BisEDT, per checkerboard row): 1 | MICB (P. aeruginosa [1]; P. aeruginosa 6977, Colistin MIC in combination with BisEDT, per checkerboard row): 1 µg/mL | Drug B MIC (P. aeruginosa [1]; P. aeruginosa 6977): 1 µg/mL | FICB (P. aeruginosa [1]; P. aeruginosa 7745, Colistin FIC in combination with BisEDT, per checkerboard row): 1 | MICB (P. aeruginosa [1]; P. aeruginosa 7745, Colistin MIC in combination with BisEDT, per checkerboard row): 0.5 µg/mL | Drug B MIC (P. aeruginosa [1]; P. aeruginosa 7745): 0.5 µg/mL | Drug B MIC (P. aeruginosa [1]; P. aeruginosa 8798): >256 µg/mL | Drug B MIC (P. aeruginosa [1]; P. aeruginosa 9108): 0.5 µg/mL | FICB ([2]; B. multivorans 1795, FIC of Colistin in combination with BisEDT): 1

— US12186283B2, “Bismuth-thiol compositions and methods of use” (Microbion Corporation, priority 2018, dated 2025)
